The values below come from patent US20080207928A1 (priority 2005, published 2008).

The structures appear in SMILES notation. Like-named read-outs stand apart in the source and are kept apart here. Some results are limits rather than exact numbers.

Experiment [1] concerns the target T1, human recombinant CB2 (Homo sapiens, UniProt P34972).
T1 construct: purchased Perkin-Elmer; host or cells: HEK293
As to the kind of experiment: CB2R radioligand binding, membranes from HEK293 cells over-expressing human recombinant CB2. On the procedure:
(§1) Flavonoid compounds of general formula (I) above were evaluated for their ability to activate Cannabinoid Receptor 1 (CBLR) and Cannabinoid Receptor 2 (CB2R).
CB2R experiments were performed using membranes from HEK293 cells over-expressing human recombinant CB2, as described by the manufacturer (Perkin-Elmer), and using [3H]CP-55,495 as the radioligand.
(§2) Data of active compounds are expressed in Ki (mM) and are means±SEM of n=3 determinations.
(§3) The values that are stated for each of the compounds is an EC50 value. This is defined as the molar concentration of an agonist, which produces 50% of the maximum possible response for that agonist. The values documented are in micromolar units.

The target in experiment [2] is T2, human recombinant CB1 (Homo sapiens, UniProt P21554).
T2 construct: purchased Perkin-Elmer; host or cells: HEK293
Put plainly: CB1R radioligand binding, membranes from HEK293 cells over-expressing human recombinant CB1. On the procedure: as §1
CB1R experiments were performed using membranes from HEK293 cells over-expressing human recombinant CB1, as described by the manufacturer (Perkin-Elmer) and using [3H]CP-55,490 as the radioligand.
as §2, §3

T1 sequence (P34972 whole entry): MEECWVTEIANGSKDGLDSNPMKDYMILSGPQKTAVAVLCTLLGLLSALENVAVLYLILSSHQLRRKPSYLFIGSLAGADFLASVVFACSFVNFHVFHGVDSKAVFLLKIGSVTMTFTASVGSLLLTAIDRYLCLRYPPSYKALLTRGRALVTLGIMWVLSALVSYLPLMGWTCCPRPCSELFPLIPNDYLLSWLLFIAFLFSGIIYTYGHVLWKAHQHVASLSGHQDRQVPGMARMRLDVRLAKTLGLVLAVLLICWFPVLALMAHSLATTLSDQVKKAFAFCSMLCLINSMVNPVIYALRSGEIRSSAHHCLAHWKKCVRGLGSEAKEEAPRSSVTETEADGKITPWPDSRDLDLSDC
T2 sequence (P21554 whole entry): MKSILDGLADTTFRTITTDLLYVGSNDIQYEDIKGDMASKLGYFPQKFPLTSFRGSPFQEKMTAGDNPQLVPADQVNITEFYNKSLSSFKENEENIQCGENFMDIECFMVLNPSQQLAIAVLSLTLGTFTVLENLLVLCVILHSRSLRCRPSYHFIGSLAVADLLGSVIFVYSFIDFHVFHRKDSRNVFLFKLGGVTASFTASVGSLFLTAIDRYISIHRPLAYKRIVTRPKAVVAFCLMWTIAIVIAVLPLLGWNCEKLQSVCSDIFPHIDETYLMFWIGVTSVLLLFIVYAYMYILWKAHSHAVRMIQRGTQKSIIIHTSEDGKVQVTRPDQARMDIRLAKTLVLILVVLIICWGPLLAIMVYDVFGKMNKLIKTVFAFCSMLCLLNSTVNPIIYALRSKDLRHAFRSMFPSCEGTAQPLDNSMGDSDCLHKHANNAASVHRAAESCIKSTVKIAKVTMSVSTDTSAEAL

With `COc1cc(O)c(CC=C(C)C)c2c1C(=O)C[C@@H](c1ccc(O)cc1)O2` [Example 1, 4′, 7-dihydroxy-5-methoxy-8-prenylflavanone], the values for the EC50 in experiment [1] and in experiment [2] were above 25 µM and 7.5 µM, respectively.

Regarding `CC(C)=CCc1c(O)cc(O)c2c1O[C@H](c1ccc(O)cc1)CC2=O` [Example 2, 4′,5,7-trihydroxy-8-prenylflavanone], the EC50 in experiment [1] is above 25 µM; in experiment [2], 4.6 µM.

With `O=C1C[C@@H](c2ccccc2)Oc2cc(O)cc(O)c21` [Example 3, 5,7-dihydroxyflavanone], the EC50 in experiment [1] (HEK293 membranes, [3H]CP-55,495 radioligand, means of n=3, read-out: CB2R Activity) was 15.5 µM; in experiment [2] (HEK293 membranes, [3H]CP-55,490 radioligand, means of n=3, read-out: CB1R Activity) it was above 25 µM.

As for `COc1cc(O)c2c(c1)O[C@H](c1ccccc1)CC2=O` [Example 4, 5-hydroxy-7-methoxyflavanone], in experiment [1], the EC50 stood at 9.1 µM and the “activation of Cannabinoid Receptor 2 (statement in words)” value is “can activate both”. For the same compound, in experiment [2], the EC50 was 0.8 µM and the “activation of Cannabinoid Receptor 1 (statement in words)” value is on record as “can activate both”.

In the case of `COc1cc(O)c2c(c1)O[C@H](c1ccc(O)cc1)CC2=O` [Example 5, 5,4′-dihydroxy-7-methoxyflavanone], the EC50 in experiment [1] was above 25 µM; in experiment [2] it was 3.8 µM.
